According to PMC9780888, “4-Isobutylmethcathinone—A Novel Synthetic Cathinone with High In Vitro Cytotoxicity and Strong Receptor Binding Preference of Enantiomers” (Pharmaceuticals, 2022):

Columns and labels:
[1] = system: MRC-5 cells; assay: Fluorescence microscopy of cell morphology, MRC-5; assay type: cell-based, human; conditions: MRC-5, 24-h treatment, 100-500 µM
Description: In addition to the evaluation of IBMcat cytotoxicity in various cell lines, its impact on cell morphology was also examined in CaCo-2 and MRC-5 cells after 24-h treatment. F-actin and cell nuclei were visualized in these cells treated with 100, 300, and 500-µM concentrations of IBMcat and its enantiomers. IBMcat (Figure 7) induced a considerable change in CaCo-2 cell morphology already from 300-µM concentration, the cells were smaller, bore roundish shapes, and grew in clusters when compared to control untreated cells. This could be ascribed to the substantial toxicity of IBMcat manifested already after 24 h at this concentration. No difference was observed between the individual enantiomers.
A total of 1 × 10^5 CaCo-2 and MRC-5 cells were seeded into 35-mm glass-bottom dishes for live-cell imaging ((#1.5, MatTek, USA; Ibidi dishes, Germany). After 16 h, the cells were gently washed with phosphate-buffered saline (PBS; pH 7.4), and then, cultivation media containing 100–500 µM IBMCat was added. Untreated cells and cells treated with the vehicle served as controls. After 24 h of the cell incubation with IBMCat, the cells were gently washed with PBS and then fixed with a 4% solution of formaldehyde (methanol-free, Thermo Fisher, USA) in PBS for 20 min. at 22 °C in the dark. Then, the fixative was discarded, and the cells were washed twice with PBS. […]

[2] = target: T1, ADRA2C (alpha-2C adrenergic receptor) (Homo sapiens, UniProt P18825); assay: PRESTO-Tango β-arrestin 2 recruitment assay, ADRA2C; assay type: cell-based; conditions: 500 nM
T1 construct: Tango construct (TEV cleavage site and tTA, as described for the dopamine receptor plasmids); host or cells: HTLA (HEK 293-derived)
T1 sequence (P18825 whole entry): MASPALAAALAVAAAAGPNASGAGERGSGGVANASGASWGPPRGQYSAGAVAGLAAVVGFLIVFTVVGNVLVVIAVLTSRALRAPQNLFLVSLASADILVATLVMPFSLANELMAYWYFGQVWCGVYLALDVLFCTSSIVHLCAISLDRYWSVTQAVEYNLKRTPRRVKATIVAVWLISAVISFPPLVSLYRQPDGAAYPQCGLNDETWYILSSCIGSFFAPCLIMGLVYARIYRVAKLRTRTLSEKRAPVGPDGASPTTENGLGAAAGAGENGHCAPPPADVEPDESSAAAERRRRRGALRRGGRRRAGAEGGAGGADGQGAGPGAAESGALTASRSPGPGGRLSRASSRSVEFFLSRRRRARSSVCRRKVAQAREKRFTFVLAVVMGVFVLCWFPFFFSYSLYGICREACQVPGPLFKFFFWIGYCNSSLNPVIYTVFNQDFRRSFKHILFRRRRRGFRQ
Description: (§1) The HTLA cell line was used for the PRESTO-Tango β-arrestin recruitment assay. The HTLA cells were provided as a gift from the laboratory of Bryan Roth (Roth Lab, USA). It is a human cell line derived from human embryonic kidney cells (HEK 293) stably expressing β-arrestin in a fusion with the tobacco etch virus protease (TEV) protease and the luciferase gene under the control of the transcription factor tetracycline transcriptional activator (tTA). The HTLA cells were cultured under standard incubation conditions (37 °C, 5% CO2, 95% humidity) in DMEM with 10% FBS. […]
(§2) The transfected HTLA cells were incubated for 24 h, and then 1 × 10^4 cells were seeded per well of a white 96-well clear bottom plate (Brand, Germany) in 40 μL of DMEM with 1% charcoal-stripped FBS (Thermo Fisher Scientific, USA). […] After 5 min., the luminescence was measured using a multi-mode microplate reader SpectraMax iD5 (Molecular Devices, San Jose, CA, USA) measuring the entire wavelength spectrum. All samples were measured in quadruplicates. The data were evaluated by Prism 7 software (GraphPad, […], CA, USA). […]
(§3) The error bar represents standard deviation from four replicates. The data were processed and evaluated by GraphPad Prism Software using one-way ANOVA: * p<0.05; ** p<0.01; *** […]

[3] = target: T2, ADRB1 (beta-1 adrenergic receptor) (Homo sapiens, UniProt P08588); assay: PRESTO-Tango β-arrestin 2 recruitment assay, ADRB1; assay type: cell-based; conditions: ADRB1, 500 nM
T2 construct: Tango construct (TEV cleavage site and tTA, as described for the dopamine receptor plasmids); host or cells: HTLA (HEK 293-derived)
T2 sequence (P08588 whole entry): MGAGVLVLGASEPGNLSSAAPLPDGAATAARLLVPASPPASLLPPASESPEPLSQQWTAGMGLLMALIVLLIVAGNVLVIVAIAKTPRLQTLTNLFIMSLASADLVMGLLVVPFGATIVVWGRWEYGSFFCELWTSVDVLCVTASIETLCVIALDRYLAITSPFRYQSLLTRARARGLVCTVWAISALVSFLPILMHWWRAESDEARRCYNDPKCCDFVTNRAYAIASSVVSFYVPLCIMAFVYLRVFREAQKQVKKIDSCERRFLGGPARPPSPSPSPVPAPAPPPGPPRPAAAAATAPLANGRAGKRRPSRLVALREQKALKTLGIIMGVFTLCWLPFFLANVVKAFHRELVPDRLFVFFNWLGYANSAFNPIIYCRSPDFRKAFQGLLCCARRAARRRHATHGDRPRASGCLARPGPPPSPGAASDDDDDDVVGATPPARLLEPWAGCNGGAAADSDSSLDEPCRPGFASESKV
Description: as §1, §2, §3

[4] = target: T3, HTR2A (5-hydroxytryptamine receptor 2A) (Homo sapiens, UniProt P28223); assay: PRESTO-Tango β-arrestin 2 recruitment assay, HTR2A; assay type: cell-based; conditions: 0-500 nM
T3 construct: Tango construct (TEV cleavage site and tTA, as described for the dopamine receptor plasmids); host or cells: HTLA (HEK 293-derived)
T3 sequence (P28223 whole entry): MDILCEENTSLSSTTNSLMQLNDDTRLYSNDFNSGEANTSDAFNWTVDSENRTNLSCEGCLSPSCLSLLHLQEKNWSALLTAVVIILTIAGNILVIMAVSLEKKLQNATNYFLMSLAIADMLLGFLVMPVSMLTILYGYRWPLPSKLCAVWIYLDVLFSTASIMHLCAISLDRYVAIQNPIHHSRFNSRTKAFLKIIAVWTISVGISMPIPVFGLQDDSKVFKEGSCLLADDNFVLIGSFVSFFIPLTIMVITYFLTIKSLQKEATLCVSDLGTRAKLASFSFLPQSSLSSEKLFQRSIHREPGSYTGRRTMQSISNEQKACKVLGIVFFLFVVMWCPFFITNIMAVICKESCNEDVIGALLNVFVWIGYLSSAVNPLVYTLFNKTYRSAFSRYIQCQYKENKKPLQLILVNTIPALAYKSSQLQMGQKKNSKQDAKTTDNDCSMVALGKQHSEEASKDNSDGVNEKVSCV
Description: as §1
(§4) The transfected HTLA cells were incubated for 24 h, and then 1 × 10^4 cells were seeded per well of a white 96-well clear bottom plate (Brand, Germany) in 40 μL of DMEM with 1% charcoal-stripped FBS (Thermo Fisher Scientific, USA). […] After 5 min., the luminescence was measured using a multi-mode microplate reader SpectraMax iD5 (Molecular Devices, San Jose, CA, USA) measuring the entire wavelength spectrum. All samples were measured in quadruplicates. The data were evaluated by Prism 7 software (GraphPad, San Jose, CA, USA).
(§5) Figure S13: β-arrestin 2 recruitment PRESTO-Tango assay: activation of the serotonin receptors. […] The data were processed and evaluated by GraphPad Prism Software using one-way […]

[5] = target: T4, HTR2B (5-hydroxytryptamine receptor 2B) (Homo sapiens, UniProt P41595); assay: PRESTO-Tango β-arrestin 2 recruitment assay, HTR2B; assay type: cell-based; conditions: 0-500 nM
T4 construct: Tango construct (TEV cleavage site and tTA, as described for the dopamine receptor plasmids); host or cells: HTLA (HEK 293-derived)
T4 sequence (P41595 whole entry): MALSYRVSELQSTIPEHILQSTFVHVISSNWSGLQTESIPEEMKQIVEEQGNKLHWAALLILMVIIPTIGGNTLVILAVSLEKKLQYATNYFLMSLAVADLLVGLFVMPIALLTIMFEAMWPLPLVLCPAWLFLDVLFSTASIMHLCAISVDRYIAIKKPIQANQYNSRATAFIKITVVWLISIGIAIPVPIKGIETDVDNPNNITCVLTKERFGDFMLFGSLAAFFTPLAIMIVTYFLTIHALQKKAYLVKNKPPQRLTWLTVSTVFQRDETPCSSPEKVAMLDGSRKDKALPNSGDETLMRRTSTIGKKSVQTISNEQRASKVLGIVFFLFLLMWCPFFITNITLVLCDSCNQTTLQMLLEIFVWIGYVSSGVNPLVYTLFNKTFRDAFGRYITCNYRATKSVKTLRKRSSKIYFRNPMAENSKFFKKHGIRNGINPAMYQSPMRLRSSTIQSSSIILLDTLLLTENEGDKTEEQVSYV
Description: as §1, §4, §5

CNC(C)C(=O)c1ccc(CC(C)C)cc1.Cl (stereo not drawn) [IBMcat, 4-isobutylmethcathinone hydrochloride]
cell number compared with control [1]: considerably lesser cells than in the control
effect on cell shape [1]: did not induce any shape-related effect
increase in RLU compared to untreated control [2]: 3.7 fold
increase in the luminescence signal [3]: 3 fold
agonistic activity for HTR2A [4]: did not exhibit any agonistic activity
agonistic activity for HTR2B [5]: did not exhibit any agonistic activity
